Like-named read-outs stand apart in the source and are kept apart here. Ends that are not written are not given here.
Tests used:
HeLa cells [1] = test: GFP-NLS protein transduction assay (flow cytometry: Pos cells %, viability %, relative fluorescence intensity; microscopy); conditions: for Mean % cells with GFP signal (±St. Dev.; n = 3): Table B2, HeLa cells, GFP-NLS cargo; for FIG. 13B Cell viability (%) (±St Dev.; n = 3): Table 5.1; for FIG. 13B Cell viability (%) (±St Dev.; n = 3) / FIG. 21B Cell viability (%) (±St. Dev.; n = 3): GFP-NLS 5 μM, HeLa, 1 hour; for FIG. 21B Cell viability (%) (±St. Dev.; n = 3): Table 8.1
in vitro [2] = conditions: human, HeLa cells; for viability: Cell viability (%) (±St Dev.; n = 3)
Jurkat cells = test: Cleaved PARP ELISA assay after transduction of anti-Active Caspase 3 or anti-TNF antibody (± actinomycin D); type: cell-based, Human; conditions: FSD23 7.5 μM, 5 min
Experimental: (§1) A monoclonal (mAb) and a polyclonal (pAb) anti-Active Caspase 3 antibodies […] were independently co-incubated with THP-1 and Jurkat cells for 5 min in the presence of FSD23 at 7.5 μM. The anti-apoptotic effect of each antibody was assessed via the level of Caspase 3-activated apoptosis with an ELISA cleaved PARP assay and quantified by spectrometry as described below.
(§2) The day of the experiment, cells in exponential growth phase were harvested, centrifugated (400g for 3 min) and resuspended in serum-free RPMI in a 96-well plate (500,000 cells in 150 μL per well). Cells were centrifugated and incubated for 5 min with a mix composed by the peptide to be tested (7.5 μM) and 2 μg of the antibody to be transduced. Cells were centrifuged and resuspended in RPMI with serum in a 24-well plate for 1 h at 37° C. Actinomycin D (2 μg/mL), a cytotoxic inducer of apoptosis, was incubated with the cells for 4 h. Cells were washed with cold PBS and tested using the PARP (Cleaved) [214/215]Human ELISA Kit (ThermoFisher) according to the manufacturer's instructions followed by spectroscopy analysis. […]

HeLa cells [3] = test: Plasmid DNA (pEGFP-C1) transfection by peptides (% cells with GFP signal, cell viability); conditions: DNA transfection in HeLa cells using peptides; pEGFP-C1 plasmid
NK-92 cells = test: NKG2A gene inactivation by delivered CRISPR/Cpf1-NLS: PE anti-NKG2A immunolabelling, FACS; type: cell-based, Human; conditions: FSD23 6 μM; Cpf1-NLS 1.5 μM; 90 sec; 48 h
Experimental: Genome editing was performed in NK-92 cells to evaluate whether inactivation of the endogenous NKG2A gene could increase the cytotoxicity of the NK-92 cells. Briefly, one million NK-92 cells were incubated with Cpf1-NLS (1.5 μM) gRNA complex targeting the NKG2A gene and with FSD23 (6 μM) for 90 sec. After transduction, cells were incubated in complete medium with IL-2 (20 ng/mL) for 48 h at 37° C. NK-92 cells were then immunolabelled with a phycoerythrin (PE)-labelled anti-NKG2A antibody (Miltenyi Biotec #CD159a) following the manufacturer recommendations. NK-92 cells were then analyzed with FACS and scored as a function of their anti-NKG2A detection (PE fluorescence) level and the results are shown in FIG. 57A. As controls, unlabelled wild-type NK-92 cells (“unlabelled WT cells”) had no antibody signal, and labelled wild-type NK-92 cells (“labelled WT cells”) had full immunolabelling signal.

in vitro [4] = conditions: human, HeLa cells
THP-1 cells [5] = test: Cleaved PARP ELISA assay after transduction of anti-Active Caspase 3 or anti-TNF antibody (± actinomycin D); type: cell-based, human; conditions: FSD23 7.5 μM, 5 min
Experimental: as §1, §2

B2M genomic DNA sequence = test: T7E1 DNA cleavage assay / % INDELs after CRISPR/Cas9-NLS or CRISPR/Cpf1-NLS delivery (HeLa, THP-1, NK, T cells); type: cell-based, Human; conditions: CRISPR/Cpf1 1.33 μM, crRNA 2 μM; THP-1 and NK cells; different concentrations and exposure times
From the text: The T7 endonuclease I (T7E1) can be used to detect on-target CRISPR/Cas genome editing events in cultured cells. As an overview, genomic DNA from target cells is amplified by PCR. The PCR products are then denatured and reannealed to allow heteroduplex formation between wild-type DNA and CRISPR/Cas-mutated DNA. T7E1, which recognizes and cleaves mismatched DNA, is used to digest the heteroduplexes. The resulting cleaved and full-length PCR products are visualized by gel electrophoresis.
The T7E1 assay was performed with the Edit-R™ Synthetic crRNA Positive Controls (Dharmacon #U-007000-05) and the T7 Endonuclease I (NEB, Cat #M0302S). After the delivery of the CRISPR/Cas complex, cells were lysed in 100 μL of Phusion™ High-Fidelity DNA polymerase (NEB #M0530S) laboratory with additives. The cells were incubated for 15-30 minutes at 56° C., followed by deactivation for 5 minutes at 96° C. The plate was briefly centrifuged to collect the liquid at bottom of the wells. 50-μL PCR samples were set up for each sample to be analyzed. The PCR samples were heated to 95° C. for 10 minutes and then slowly (>15 minutes) cooled to room temperature. PCR product (-5 μL) was then separated on an agarose gel (2%) to confirm amplification. 15 μL of each reaction was incubated with T7E1 nuclease for 25 minutes at 37° C. Immediately, the entire reaction volume was run with the appropriate gel loading buffer on an agarose gel (2%).
Cas9-NLS recombinant protein was prepared as described in Example 13.1. Cpf1-NLS recombinant protein was prepared as described in Example G.2. A mix composed of a Cas9-NLS recombinant protein with its respective crRNAltracrRNA, or a Cpf1-NLS recombinant protein with its respective single guide crRNA(s) (see below) targeting a nucleotide sequence of the B2M gene, was co-incubated with different concentrations of the peptides FSD10, FSD18, FSD19, FSD21, FSD22, or FSD23 and incubated with HeLa, THP-1 or NK cells for 90 sec in PBS, or for 1 h in medium without serum, or for 48 h in medium with serum, using the transduction protocols as generally described in Example 3.1a. Cells were then washed with PBS and harvested to proceed with the T7E1 protocol assay as described in Example 13.4.
FIGS. 52A-52D show the results of the cleavage of the targeted genomic B2M DNA sequence after the delivery of CRISPR/Cpf1 (1.33 μM) with crRNA−1 or crRNA−2 (2 μM) in the absence (“-ctrl”) or in the presence of the peptides FSD10, FSD18, FSD19, FSD21 or FSD23 used at different concentrations, exposure times, and in different types of cells: THP-1 (FIG. 52A), and NK (FIGS. 52B, 52C, 52D), after separation by agarose gel electrophoresis. […] Gel lanes were loaded in duplicate. Thin dashed arrows indicate the bands corresponding to the target gene, and thick solid arrows indicate the bands corresponding to the cleavage products of this target gene, which indicate the successful transduction of fully functional CRISPR genome editing complexes. We used a Bio-Rad ImageLab™ software (Version 5.2.1, Bio-Rad, http://www.bio-rad.com/en-ca/product/image-lab-software?tab=Download) to quantify the relative signal intensities of each of the different bands directly on the gels. The sum of all the bands in a given lane corresponds to 100% of the signal, and the numerical value in italics at the bottom of each lane is the sum of the relative signals (%) of only the two cleavage product bands (thick solid arrows). No cleavage product bands were found in the negative controls (“-ctrl”, i.e., to cells that were exposed to CRISPR system in the absence of FSD peptide).
Cas9-NLS recombinant protein was prepared as described in Example 13.1. Cpf1-NLS recombinant protein was prepared as described in Example G.2. […]

in vitro [6] = conditions: human, THP-1 cells
THP-1 cells [7] = test: GFP-NLS protein transduction assay (flow cytometry: Pos cells %, viability %, relative fluorescence intensity; microscopy); conditions: for Mean % cells with GFP signal (±St. Dev.; n = 3): THP-1 cells, GFP-NLS 10 μM
HeLa cells [8] = test: Transduction of anti-NUP98 antibody, immuno-labelling and fluorescence microscopy; type: cell-based, Human; conditions: FSD19 7.5 μM; 4 hours
Experimental: Anti-NUP98 antibody […] was co-incubated with 7.5 μM of FSD19 and exposed to HeLa cells for 4 hours. Cells are washed, fixed with paraformaldehyde 4%, permeabilized with 0.1% Triton™ and labeled with a fluorescently labeled (Alexa™ Fluor 488) goat anti-rat antibody. Antibody bound to the perinuclear membrane and cell nuclei were visualized by fluorescence microscopy at 20× (upper panels) and 40× (lower panels).

HeLa cells [9] = test: FITC-labeled anti-tubulin antibody transduction assay (flow cytometry, cell viability, microscopy); conditions: FITC-labeled anti-tubulin antibody 0.5 μM, HeLa, 1 hour; shuttle 3.5 μM
Experimental: The delivery and microscopy protocols are described in Example 3.
HeLa cells were cultured and tested in the protein transduction assay described in Example 3.1. […] The cells were subjected to flow cytometry analysis as described in Example 3.3.

HeLa cells [10] = test: TAT-GFP protein transduction assay (flow cytometry, cell viability, fluorescence microscopy); type: cell-based, Human; conditions: TAT-GFP 5 μM, 1 hour
Experimental: Briefly, TAT-GFP recombinant protein (5 μM) was co-incubated with different concentrations of CM18-TAT-Cys (0, 0.5, 1, 3, or 5 μM) and then exposed to HeLa cells for 1 hour.

primary myoblasts = test: Calcein endosomal escape assay, quantification by flow cytometry (mean counts, Mean Factor); type: cell-based, Human; conditions: myoblast cells
From the text: Calcein is a membrane-impermeable fluorescent molecule that is readily internalized by cells when administered to the extracellular medium. Its fluorescence is […] and calcein self-quenches at higher concentrations. Once internalized, calcein becomes sequestered at high concentrations in cell endosomes and can be visualized by fluorescence microscopy as a punctate pattern. Following endosomal leakage, calcein is released to the cell cytoplasm and this release can be visualized by fluorescence microscopy as a diffuse pattern.
The cells were allowed to attach by incubating overnight in appropriate growth media, as described in Example 1. The next day, the media in wells was removed and replaced with 50 μL of fresh media without serum containing 62.5 μg/mL (100 μM) of calcein, except for HEK293A (250 μg/mL, 400 μM). […]
Untreated calcein-loaded cells were used as a control to distinguish cells having a baseline of fluorescence due to endosomally-trapped calcein from cells having increased fluorescence due to release of calcein from endosomes. Fluorescence signal means (“mean counts”) were analyzed for endosomal escape quantification. In some cases, the “Mean Factor” was calculated, which corresponds to the fold-increase of the mean counts relative to control (untreated calcein-loaded cells). […] The cellular mortality was monitored with the percentage of cells in the total events scanned. […]

HeLa cells [11] = type: cell-based, Human; conditions: GFP (5 μM), 1 hour
Experimental: One day before the transduction assay was performed, cells in exponential growth phase were harvested and plated in a 96-well plate (20,000 cells per well). The cells were incubated overnight in appropriate growth media containing FBS (see Example 1). The next day, in separate sterile 1.5 mL tubes, cargo protein at the indicated concentration was pre-mixed (pre-incubated) for 1 or 10 min (depending on the protocol) at 37° C. with the peptide(s) to be tested shuttle agents (0.5 to 5 μM) in 50 μL of fresh medium without serum (unless otherwise specified). The media in wells was removed and the cells were washed three times with freshly prepared phosphate buffered saline (PBS) previously warmed at 37° C. The cells were incubated with the cargo protein/shuttle agent mixture at 37° C. for the indicated time (e.g., 1, 5 or 60 min). After the incubation, the cells were quickly washed three times with freshly prepared PBS and/or heparin (0.5 mg/mL) previously warmed at 37° C. […] The cells were finally incubated in 50 μL of fresh medium with serum at 37° C. before analysis.
The Olympus filter U-MF2™ (C54942-Exc495/Em510) was used to observe GFP and FITC-labeled antibody fluorescent signals. […] The Olympus filter U-MWU2™ (Exc330/Em385) was used to observe DAPI or Blue Hoechst fluorescent signals. The cells incubated in 50 μL of fresh medium were directly observed by microscopy (Bright-field and fluorescence) at different power fields (4× to 40×). The cells were observed using a CoolSNAP-PRO™ camera (Series A02D874021) and images were acquired using the Image-Proplus™ software.
The fluorescence of GFP was quantified using flow cytometry (Accuri C6, Becton, Dickinson and Company (BD)). Untreated cells were used to establish a baseline in order to quantify the increased fluorescence due to the internalization of the fluorescent protein in treated cells. The percentage of cells with a fluorescence signal above the maximum fluorescence of untreated cells, “mean %” or “Pos cells (%)”, is used to identify positive fluorescent cells. “Relative fluorescence intensity (FL1−A)” corresponds to the mean of all fluorescence intensities from each cell with a fluorescent signal after fluorescent protein delivery with the shuttle agent. Also, the events scanned by flow cytometry corresponding to cells (size and granularity) were analyzed. The cellular toxicity (% cell viability) was monitored comparing the percentage of cells in the total events scanned of treated cells comparatively to untreated cells.

Sequence: HHHHHHLLKLWSRLLKEWTQGRRLEAKRAEAHHHHHH [FSD23]
- Mean % cells with GFP signal (±St. Dev.; n = 3) (HeLa cells [1]): 50.34 ± 4.29%
- viability (in vitro [2]): 65.3 ± 5.44%
- transduction of functional anti-Active Caspase 3 antibodies (cleaved PARP, in words) (Jurkat cells): successfully transduced functional anti-Active Caspase 3 antibodies
- Mean % cells with GFP signal (±St. Dev.; n = 3) (HeLa cells [3]): 0.04 ± 0.00%
- NKG2A receptor expression on the cell surface after genome editing (NK-92 cells): two cell populations (peaks) were observed
- viability (in vitro [4]): 98.2 ± 1.03%
- transduction of functional anti-Active Caspase 3 antibodies (cleaved PARP, in words) (THP-1 cells [5]): successfully transduced functional anti-Active Caspase 3 antibodies
- delivery of CRISPR/Cpf1 complex, cleavage of genomic B2M (in words) (B2M genomic DNA sequence): successful delivery of the CRISPR genome-editing complexes to the nucleus

Sequence: HHHHHHLLKLWSRLLKTWTQGRRLKAKSAQASTRQAHHHHHH [FSD19]
- Mean % cells with GFP signal (±St. Dev.; n = 3) (HeLa cells [1]): 55.17 ± 4.62%
- viability (in vitro [2]): 80.6 ± 5.36%
- viability at 15 s, 5 µM (in vitro [6]): 60.5 ± 5.71%
- viability at 0.5 min, 2 µM (in vitro [6]): 68.7 ± 4.29%
- Mean % cells with GFP signal (±St. Dev.; n = 3) (HeLa cells [3]): 0.24 ± 0.00%
- Mean % cells with GFP signal (±St. Dev.; n = 3) (THP-1 cells [7]; peptide 2 μM, incubation 0.5 min): 55.4 ± 4.63%
- Mean % cells with GFP signal (±St. Dev.; n = 3) (THP-1 cells [7]; peptide 5 μM, incubation 0.25 min): 61.5 ± 6.07%
- viability (in vitro [4]): 97.4 ± 2.07%
- delivery of CRISPR/Cpf1 complex, cleavage of genomic B2M (in words) (B2M genomic DNA sequence): successful delivery of the CRISPR genome-editing complexes to the nucleus
- functionality of transduced anti-NUP98 antibody (microscopy) (HeLa cells [8]): anti-NUP98 antibody retained its functionality inside the cell following its transduction

Sequence: KWKLFKKIGAVLKVLTTGYGRKKRRQRRRC [CM18-TAT-Cys]
- FIG. 13B Cell viability (%) (±St Dev.; n = 3) (HeLa cells [1]; shuttle 0.5 μM): 87.6 ± 4%
- FIG. 13B Cell viability (%) (±St Dev.; n = 3) (HeLa cells [1]; shuttle 1 μM): 93 ± 8%
- FIG. 13B Cell viability (%) (±St Dev.; n = 3) (HeLa cells [1]; shuttle 5 μM): 93 ± 4%
- FIG. 21B Cell viability (%) (±St. Dev.; n = 3) (HeLa cells [1]; shuttle 3 μM): 89 ± 5.37%
- FIG. 21B Cell viability (%) (±St. Dev.; n = 3) (HeLa cells [1]; shuttle 5 μM): 81 ± 6.34%
- viability at 1 h, 1 µM (in vitro [2]): 94 ± 4.28%
- FIG. 19B Cell viability (%) (± St. Dev.; n = 3) (HeLa cells [9]): 95 ± 4.06%
- FIG. 17B Cell viability (%) (±St Dev.; n = 3) (THP-1 cells [7]; Table 5.5, GFP-NLS 5 μM, THP-1, 5 minutes, shuttle 1 μM): 85 ± 6%
- viability (in vitro [4]): 96.3 ± 1.86%
- FIG. 11B Cell viability (%) (±St. Dev.; n = 3) (HeLa cells [10]; shuttle 0.5 μM): 84.36 ± 5%
- FIG. 11B Cell viability (%) (±St. Dev.; n = 3) (HeLa cells [10]; shuttle 1 μM): 89.26 ± 5.26%
- FIG. 11B Cell viability (%) (±St. Dev.; n = 3) (HeLa cells [10]; shuttle 3 μM): 93.18 ± 6.28%
- FIG. 11B Cell viability (%) (±St. Dev.; n = 3) (HeLa cells [10]; shuttle 5 μM): 95.14 ± 5.28%
- peptide concentrations associated with an increase in cell toxicity (primary myoblasts): above 10 μM
- Cell viability (%) (HeLa cells [11]; shuttle 0.5 μM): 88.4 ± 6%
- Cell viability (%) (HeLa cells [11]; shuttle 1 μM): 90 ± 6%
- Cell viability (%) (HeLa cells [11]; shuttle 3 μM): 91 ± 5%
- Cell viability (%) (HeLa cells [11]; shuttle 5 μM): 90 ± 7%
